Data published in patent US20250215030A1, “STAT MODULATORS AND USES THEREOF” (Recludix Pharma, Inc., priority 2022, published 2025).
Read-outs that look alike come from different tables or passages of the source.

Target: T1, pSTAT3 (pY705-STAT3) (Homo sapiens, UniProt P40763)
T1 construct: host or cells: cryopreserved PBMC
Experiment: MSD-pSTAT-PBMC Assay (pSTAT3, IL-6 stimulated)
Format: cell-based
Text: Cryopreserved Peripheral Blood Mononuclear Cells (PBMC) are from AllCells. Recombinant Human IL-4 and IL-6 are from Peprotech. Mouse monoclonal anti-STAT3 antibody, rabbit monoclonal anti-pY705-STAT3 antibody, rabbit monoclonal Anti-pY641-STAT6 antibody, and lysis buffer are from Cell Signaling Technology (CST). Mouse monoclonal anti-STAT6 antibody is from BioLegend. Assay plates, blocker, and anti-rabbit secondary antibody are from Meso Scale Discovery (MSD).
Cryopreserved PBMCs were thawed out and allowed to recover overnight in IMDM+10% heat-inactivated FBS prior to plating 50,000 (STAT3) or 25,000 (STAT6) cells per well in 96-well U-bottom tissue culture plates. Cells were treated with compound for 3 hrs, then stimulated with 10 ng/mL IL-6 (STAT3) or 1 ng/mL IL-4 (STAT6) for 10 min. Cells were then spun down and washed with ice-cold PBS prior to lysing the cell pellet with 1× lysis buffer (CST) with 1× HALT protease and phosphatase inhibitor cocktail (Thermo). Lysates were transferred to and incubated overnight at 4° C. with shaking in QuickPlex 96-well high bind assay plates (MSD) pre-coated overnight with 30 μL per well of 0.6 μg/mL mouse monoclonal anti-STAT3 antibody (STAT3) or 2 μg/mL mouse monoclonal anti-STAT6 antibody (STAT6) in 1×PBS, and pre-blocked for 1 hour with 3% Blocker-A (MSD). Captured protein in the assay plates were then washed and probed with 25 μL per well of 0.25 μg/ml rabbit monoclonal anti-pY705-STAT3 antibody (STAT3) or 0.18 μg/ml rabbit monoclonal Anti-pY641-STAT6 antibody (STAT6) in 1% Blocker-A for 1 hour at room temperature with shaking, then washed and probed with 25 ul per well of 1 ug/mi Sulfo-TAG Labeled Goat Anti-Rabbit Antibody (MSD) in 1% Blocker-A for 1 hour at room temperature with shaking. Assay plates were then washed and 150 μL of 1× Read Buffer-T (MSD) was added to each well prior to reading on an SQ120 MSD Plate Reader. Assay signal from each sample was subtracted by the signal from unstimulated control wells and normalized to DMSO control wells. IC50 values were calculated using Graph Pad Prism Dose-Response Nonlinear Regression with variable slope. For both pSTAT3 and pSTAT6 A=≤100 nM; B=>100-1000 nM; C=>1000-3000 nM; and D=>3 μM.

[1] = PBMC, compound 3 hrs, then 10 ng/mL IL-6 for 10 min, MSD pY705-STAT3, read-out: pSTAT3

T1 sequence (P40763 whole entry): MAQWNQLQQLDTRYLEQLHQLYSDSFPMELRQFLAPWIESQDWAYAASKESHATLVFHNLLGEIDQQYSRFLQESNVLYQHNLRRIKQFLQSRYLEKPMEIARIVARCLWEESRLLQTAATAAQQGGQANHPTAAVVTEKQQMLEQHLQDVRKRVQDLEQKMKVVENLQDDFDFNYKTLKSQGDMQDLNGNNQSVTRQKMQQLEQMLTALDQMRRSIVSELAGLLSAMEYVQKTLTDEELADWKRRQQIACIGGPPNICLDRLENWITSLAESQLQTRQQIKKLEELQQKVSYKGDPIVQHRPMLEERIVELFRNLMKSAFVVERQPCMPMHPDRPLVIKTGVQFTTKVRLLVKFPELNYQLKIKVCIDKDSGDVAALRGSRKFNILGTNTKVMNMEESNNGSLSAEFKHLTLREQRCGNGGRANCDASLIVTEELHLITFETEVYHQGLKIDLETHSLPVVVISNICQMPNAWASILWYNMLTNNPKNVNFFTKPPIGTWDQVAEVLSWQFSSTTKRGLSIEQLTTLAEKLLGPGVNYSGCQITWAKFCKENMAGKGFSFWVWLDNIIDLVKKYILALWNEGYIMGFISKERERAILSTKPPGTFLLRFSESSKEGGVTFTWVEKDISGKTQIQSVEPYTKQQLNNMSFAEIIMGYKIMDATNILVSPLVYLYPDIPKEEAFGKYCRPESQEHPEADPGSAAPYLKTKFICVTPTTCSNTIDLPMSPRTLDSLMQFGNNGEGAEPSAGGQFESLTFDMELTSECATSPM

SMILES | IC50 | IC50 [1]
CCCOC(=O)[C@H](C)NP(=O)(Oc1ccccc1)C(F)c1ccc2sc(C(=O)N[C@H]3C[C@@H]4C[C@@H]4C[C@H]4CC[C@@H](C(=O)N5CC(c6cnccc6N6CCC6)C5)N4C3=O)cc2c1 (single isomer, unassigned) [Compound 426] | < 100 nM | 
CCCOC(=O)[C@H](C)N[P@](=O)(Oc1ccccc1)[C@@H](F)c1ccc2sc(C(=O)N[C@H]3C[C@@H]4C[C@@H]4C[C@H]4CC[C@@H](C(=O)N5C[C@H](c6cccnc6)[C@@H](C#N)C56CC6)N4C3=O)cc2c1 (single isomer, unassigned) [Compound 430] |  | > 3000 nM
CCCOC(=O)[C@H](C)N[P@@](=O)(Oc1ccccc1)[C@@H](F)c1ccc2sc(C(=O)N[C@H]3C[C@@H]4C[C@@H]4C[C@H]4CC[C@@H](C(=O)N5C[C@H](c6cccnc6)[C@@H](C#N)C56CC6)N4C3=O)cc2c1 (single isomer, unassigned) [Compound 431] | > 3000 nM | 
CCCOC(=O)[C@H](C)N[P@@](=O)(Oc1ccccc1)[C@@H](F)c1ccc2sc(C(=O)N[C@H]3C[C@@H]4C[C@@H]4C[C@H]4CC[C@@H](C(=O)N5C[C@@H](c6cnccc6N(C)C)CC56CC6)N4C3=O)cc2c1 (single isomer, unassigned) [Compound 432] |  | < 100 nM
CCCOC(=O)[C@H](C)N[P@@](=O)(Oc1ccccc1)[C@@H](F)c1ccc2sc(C(=O)N[C@H]3C[C@@H]4C[C@@H]4C[C@H]4CC[C@@H](C(=O)N5C[C@H](c6cnccc6N(C)C)CC56CC6)N4C3=O)cc2c1 (single isomer, unassigned) [Compound 434] | < 100 nM | 
CC(C)OC(=O)[C@H](C)N[P@@](=O)(Cc1ccc2sc(C(=O)N[C@H]3C[C@@H]4C[C@@H]4C[C@H]4CC[C@@H](C(=O)N5CC(C(=O)N6CCOCC6)C5)N4C3=O)cc2c1)Oc1ccccc1 (single isomer, unassigned) [Example 5] |  | 1000 to 3000 nM
CC(C)OC(=O)[C@H](C)N[P@](=O)(Cc1ccc2sc(C(=O)N[C@H]3C[C@@H]4C[C@@H]4C[C@H]4CC[C@@H](C(=O)N5CC(C(=O)N6CCOCC6)C5)N4C3=O)cc2c1)Oc1ccccc1 (single isomer, unassigned) [Example 6] |  | 1000 to 3000 nM
CCCOC(=O)[C@@H](C)NP(=O)(Cc1ccc2sc(C(=O)N[C@H]3C[C@@H]4C[C@]4(C)C[C@H]4CC[C@@H](C(=O)N5CC(c6cccnc6)C5)N4C3=O)cc2c1)Oc1ccccc1 (stereo in doubt) [Compound 240, propyl(((2-(((3S,6S,7aR,8aS,9aR)-8a-methyl-5-oxo-3-(3-(pyridin-3-yl)azetidine-1-carbonyl)decahydro-1H-cyclopropa[d]pyrrolo[1,2-a]azocin-6-yl)carbamoyl)benzo[b]thiophen-5-yl)methyl)(phenoxy)phosphoryl)-L-alaninate] | < 100 nM | 
CCCOC(=O)[C@@H](C)NP(=O)(Cc1ccc2sc(C(=O)N[C@H]3C[C@H]4C[C@H]4C[C@H]4CC[C@@H](C(=O)N5CC(c6cnccc6C)C5)N4C3=O)cc2c1)Oc1ccccc1 (stereo in doubt) [Compound 242, propyl(((2-(((3S,6S,7aR,8aS,9aR)-3-(3-(4-methylpyridin-3-yl)azetidine-1-carbonyl)-5-oxodecahydro-1H-cyclopropa[d]pyrrolo[1,2-a]azocin-6-yl)carbamoyl)benzo[b]thiophen-5-yl)methyl)(phenoxy)phosphoryl)-L-alaninate] | < 100 nM | 
CCCOC(=O)[C@@H](C)NP(=O)(Oc1ccccc1)C(F)c1ccc2sc(C(=O)N[C@H]3C[C@@H]4C[C@@H]4C[C@H]4CC[C@@H](C(=O)N5C[C@@H]6[C@H]5CCN6C(C)=O)N4C3=O)cc2c1 (stereo in doubt) [Compound 291, propyl(((2-(((3S,6S,7aS,8aR,9aR)-3-((1S,5S)-2-acetyl-2,6-diazabicyclo[3.2.0]heptane-6-carbonyl)-5-oxodecahydro-1H-cyclopropa[d]pyrrolo[1,2-a]azocin-6-yl)carbamoyl)benzo[b]thiophen-5-yl)fluoromethyl)(phenoxy)phosphoryl)-L-alaninate] | < 100 nM | 
CCCOC(=O)C(C)NP(=O)(Oc1ccccc1)C(F)c1ccc2sc(C(=O)N[C@H]3C[C@@H]4C[C@@H]4C[C@H]4CC[C@@H](C(=O)N5C[C@H]6[C@@H]5CCN6c5cccnc5)N4C3=O)cc2c1 (stereo in doubt) [Compound 297, propyl ((fluoro(2-(((3S,6S,7aS,8aR,9aR)-5-oxo-3-((1S,5S)-2-(pyridin-3-yl)-2,6-diazabicyclo[3.2.0]heptane-6-carbonyl)decahydro-1H-cyclopropa[d]pyrrolo[1,2-a]azocin-6-yl)carbamoyl)benzo[b]thiophen-5-yl)methyl)(phenoxy)phosphoryl)-L-alaninate] |  | < 100 nM
CCCOC(=O)C(C)NP(=O)(Oc1ccccc1)C(F)c1ccc2sc(C(=O)N[C@H]3C[C@@H]4C[C@@H]4C[C@H]4CC[C@@H](C(=O)N5C[C@@H]6[C@H]5CCN6c5cccnc5)N4C3=O)cc2c1 (stereo in doubt) [Compound 298, propyl ((fluoro(2-(((3S,6S,7aS,8aR,9aR)-5-oxo-3-((1R,5R)-2-(pyridin-3-yl)-2,6-diazabicyclo[3.2.0]heptane-6-carbonyl)decahydro-1H-cyclopropa[d]pyrrolo[1,2-a]azocin-6-yl)carbamoyl)benzo[b]thiophen-5-yl)methyl)(phenoxy)phosphoryl)-L-alaninate] |  | < 100 nM
CCCOC(=O)[C@H](C)NP(=O)(Oc1ccccc1)C(F)c1ccc2sc(C(=O)N[C@H]3C[C@H]4C[C@H]4C[C@H]4CC[C@@H](C(=O)N5CC(c6cnccc6N6CCOCC6)C5)N4C3=O)cc2c1 (stereo in doubt) [Compound 409, propyl(((R)-fluoro(2-(((3S,6S,7aS,8aR,9aR)-3-(3-(4-morpholinopyridin-3-yl)azetidine-1-carbonyl)-5-oxodecahydro-1H-cyclopropa[d]pyrrolo[1,2-a]azocin-6-yl)carbamoyl)benzo[b]thiophen-5-yl)methyl)(phenoxy)phosphoryl)-L-alaninate] | < 100 nM | 
CCCOC(=O)[C@H](C)N[P@@](=O)(Oc1ccccc1)[C@H](F)c1ccc2sc(C(=O)N[C@H]3C[C@@H]4C[C@@H]4C[C@H]4CC[C@@H](C(=O)N5CC(c6cnccc6N(C)C)C5)N4C3=O)cc2c1 (stereo in doubt) [Compound 415, propyl((R)-((R)-(2-(((3S,6S,7aS,8aR,9aR)-3-(3-(4-(dimethylamino)pyridin-3-yl)azetidine-1-carbonyl)-5-oxodecahydro-1H-cyclopropa[d]pyrrolo[1,2-a]azocin-6-yl)carbamoyl)benzo[b]thiophen-5-yl)fluoromethyl)(phenoxy)phosphoryl)-L-alaninate] | < 100 nM | 
CCCOC(=O)[C@H](C)NP(=O)(Oc1ccccc1)[C@@H](F)c1ccc2sc(C(=O)N[C@H]3C[C@H]4C[C@H]4C[C@H]4CC[C@@H](C(=O)N5CC(c6cnccc6N6CC[C@H]6COC)C5)N4C3=O)cc2c1 (stereo in doubt) [Compound 417, propyl(((R)-fluoro(2-(((3S,6S,7aS,8aR,9aR)-3-(3-(4-((S)-2-(methoxymethyl)azetidin-1-yl)pyridin-3-yl)azetidine-1-carbonyl)-5-oxodecahydro-1H-cyclopropa[d]pyrrolo[1,2-a]azocin-6-yl)carbamoyl)benzo[b]thiophen-5-yl)methyl)(phenoxy)phosphoryl)-L-alaninate] | < 100 nM | 
O=C(OCOP(=O)(Cc1ccc2sc(C(=O)N[C@H]3C[C@@H]4C[C@@H]4C[C@H]4CC[C@@H](C(=O)N5CC(C(=O)N6CCOCC6)C5)N4C3=O)cc2c1)OCOC(=O)OC1CCOCC1)OC1CCOCC1 [Compound 130, ((((2-(((3S,6S,7aS, 8aR,9aR)-3-(3-(morpholine-4-carbonyl)azetidine-1-carbonyl)-5-oxodecahydro-1H-cyclopropa[d]pyrrolo[1,2-a]azocin-6-yl)carbamoyl)benzo[b]thiophen-5-yl)methyl)phosphoryl)bis (oxy))bis (methylene) bis(tetrahydro-2H-pyran-4-yl) bis(carbonate)] |  | > 3000 nM
CC(C)(CO)C(=O)OCOP(=O)(OCOC(=O)C(C)(C)CO)C(F)(F)c1ccc2sc(C(=O)N[C@H]3C[C@@H]4C[C@@H]4C[C@H]4CC[C@@H](C(=O)N5CC(C(=O)N6CCOCC6)C5)N4C3=O)cc2c1 [Compound 132, (((difluoro(2-(((3S,6S,7aS, 8aR,9aR)-3-(3-(morpholine-4-carbonyl)azetidine-1-carbonyl)-5-oxodecahydro-1H-cyclopropa[d]pyrrolo[1,2-a]azocin-6-yl)carbamoyl)benzo[b]thiophen-5-yl)methyl)phosphoryl)bis(oxy)) bis(methylene) bis(3-hydroxy-2,2-dimethyl-propanoate)] |  | > 3000 nM
